The values below come from PMC12018048, “Intranasal kisspeptin administration rapidly stimulates gonadotropin release in humans” (eBioMedicine, 2025).

The test system of data set [1] is serum LH, FSH, oestradiol and progesterone. As to the kind of experiment: Intranasal kisspeptin-54, reproductive hormone profiles in healthy women. As to conditions: N = 12. The class given is in vivo, human. The procedure: This was a randomised, double-blinded, crossover, placebo-controlled clinical study (Fig. 1, Fig. 2, Fig. 3a). Participants were admitted to the Clinical Research Unit (Imperial College Healthcare NHS Trust) and completed five (in healthy men) or two (in healthy women and patients with HA) study visits. […] Study visits in healthy women were conducted in the follicular phase of the menstrual cycle (i.e., days 2–10 inclusive) to control for changes in reproductive hormones over the course of the cycle and were conducted across two different menstrual cycles to allow washout.
All studies commenced at 08:00 to control for circadian hormonal changes. Participants were instructed to abstain from alcohol, caffeine, and sexual activities from 22:00 preceding each study visit. On arrival, an intravenous cannula was inserted into one antecubital fossa, and blood was sampled at timepoints −30, −15, and 0 min, before intranasal administration of kisspeptin-54 or 0.9% saline (placebo). Following participant education (described below), healthy men self-administered the following 5 interventions under supervision in random order via the intranasal route: 3.2, 6.4, 12.8, and 25.6 nmol/kg of kisspeptin-54, or placebo. Healthy women and patients with HA attended for the same protocol comparing 12.8 nmol/kg of kisspeptin-54 and placebo in random order. After administration of kisspeptin-54 or placebo at timepoint 0 min, serum levels of LH, FSH, and testosterone (in men), or oestradiol and progesterone (in women) were measured every 15 min for 4 h. Heart rate, blood pressure, and the presence of adverse symptoms were recorded every 15 min.
Kisspeptin-54 or placebo was self-administered using nasal spray devices that delivered a single volume of 100 μL per actuation (SP270+ pump, 3959 actuator, 5 mL SGD U-Save glass bottles provided by Nemera, La Verpillière, France). The kisspeptin-54 nasal spray solution formulations were prepared by reconstituting kisspeptin-54 powder stored in sterile vials on the morning of each study visit to produce a solution containing the target dose according to body weight in 400 μL.
Participants were familiarised with the procedure of intranasal application and were provided with written administration instructions ahead of each study visit, as described in.[38] In addition, participants received a 5-min training session using a dummy nasal spray device before starting the study to ensure good technique, which all participants easily understood. Under instruction and supervision from the clinical team, participants primed the nasal sprays then self-administered a total of four sprays of kisspeptin-54 or placebo per visit (i.e., 4 × 100 μL), alternating between nostrils and leaving 60 s between sprays, to allow satisfactory dissipation and avoid solution running out of the nostrils. Nasal sprays containing kisspeptin or placebo were identical in appearance, volume, and administration technique.
Blood samples were collected to measure serum reproductive hormone levels at the timepoints depicted in Fig. 1, Fig. 2, Fig. 3a. Serum samples were stored at −20 °C until analysis. Serum LH, FSH, testosterone (in men), and oestradiol and progesterone (in women) were measured using automated chemiluminescent immunoassays (Abbott Diagnostics, Maidenhead, UK: LH catalogue # 2P40-25, FSH catalogue # 7K75-25, testosterone catalogue # 07K7320, oestradiol catalogue # 7K72-25, progesterone catalogue # 7K77-25). Reference ranges: LH in international units per litre (IU/L), 2–12 (men), 2–10 (follicular), 20–60 (mid-cycle), 4–14 (luteal); FSH in IU/L, 1.7–8 (men), 1.5–8.0 (follicular and luteal), 10–50 (mid-cycle); in men: testosterone in nanomoles per litre (nmol/L), 10–30; and in women: oestradiol in picomoles per litre (pmol/L), <300 (early follicular), 400–1500 (mid-cycle), 200–1000 (luteal) and progesterone in nmol/L, <5.0 (follicular), 3.5–67 (luteal). […]

The conditions of data set [2]: human, cited from earlier work. The protocol:
This was a randomised, double-blinded, crossover, placebo-controlled clinical study (Fig. 1, Fig. 2, Fig. 3a). Participants were admitted to the Clinical Research Unit (Imperial College Healthcare NHS Trust) and completed five (in healthy men) or two (in healthy women and patients with HA) study visits. […] Study visits in healthy women were conducted in the follicular phase of the menstrual cycle (i.e., days 2–10 inclusive) to contr ... || page 10: Research Governance and Integrity Team Throughout the study there will be at least one physician available 24 hours per day via a direct line, with a second physician on back up, and a secondary direct line to one of the senior physicians. […] Kisspeptin is rapidly cleared (11, 12) and participants would not be anticipated to experience any delayed effects on completion of the study visit. The Chief Investigato ...

Details of data set [3]: method as in PMID 37467734. As to conditions: intravenous and subcutaneous routes, over 1000 healthy men and women and patients; cited from earlier work.
[4] abbreviates: follicular phase, intranasal 12.8 nmol/kg, 4 h sampling, mean ± SEM.
The mark [5] stands for this setting: follicular phase, intranasal 12.8 nmol/kg, mean ± SEM.
The mark [6] stands for this setting: intranasal 12.8 nmol/kg vs placebo, paired t-test.
[7] abbreviates: intranasal 12.8 nmol/kg, two-way ANOVA, 4 h time profile.

With Kisspeptin-54, in data set [1] (setting [4]), the “AUC of the change in serum FSH” value is -36.1 ± 23.4 h·IU/L and the “AUC of the change in serum LH” value came out at 96.0 ± 45.8 h·IU/L. Moreover, in data set [1] (setting [5]), the “Maximum increase from baseline in serum FSH” value is given as 0.3 ± 0.1 IU/L and the “Maximum increase from baseline in serum LH” value worked out at 1.4 ± 0.3 IU/L. Besides, in data set [1] (setting [6]), the “FSH AUC, mean difference vs placebo” value was found to be 76.4 h·IU/L; the “FSH maximum increase, mean difference vs placebo” value worked out at 0.4 IU/L; the “LH AUC, mean difference vs placebo” value is recorded as 179.8 h·IU/L; the “LH maximum increase, mean difference vs placebo” value was determined as 1.0 IU/L. In data set [1] (intranasal 12.8 nmol/kg, acute 4-h time-course), the “Effect on circulating oestradiol and progesterone levels” value is on record as “no significant effects”. In data set [1] (setting [7]), the “Serum FSH over time, mean difference vs placebo” value is 0.3 IU/L and the “Serum LH over time, mean difference vs placebo” value amounted to 0.7 IU/L. Moreover, the Intravenous half-life in data set [2] (study protocol (supplement 2)) was 28 min. For the same substance, in data set [2], the Circulating half-life is listed as 27.6 min. For the same substance, the Adverse effects result in data set [3] is “without any observed adverse effects”.
